Results reported in article PMC7377239, “Cardiovascular Effects of Polychlorinated Biphenyls and Their Major Metabolites” (Environmental Health Perspectives, 2020).
Structures can show the parent of a compound that is named as a salt. Where two headings read alike, the source gives them in different places.

Legend:
[1] = test system: iPSC-CMs, iPSC-ECs and HUVECs phenotypes; experiment: ToxPi 2.0 integration of POD values and physicochemical descriptors; set-up: species or system human; conditions: ToxPi-scaled (0-1) score; for huvec.cyto.24hr / huvec.mito.24hr / huvec.mitoint.24hr / huvec.nma.24hr / huvec.tc.24hr / huvec.mtl.18hr / huvec.tlps.18hr / huvec.tta.18hr / huvec.ttl.18hr: HUVECs; for huvec.mtl.18hr / huvec.tlps.18hr / huvec.tta.18hr / huvec.ttl.18hr / endo.mtl.18hr / endo.tlps.18hr / endo.tta.18hr / endo.ttl.18hr: tube formation; for cm.amp.avg.90min / cm.amp.cv.90min / cm.bpm.90min / cm.cam.90min / cm.decay.rise.90min / cm.mii.90min / cm.mito.90min / cm.spacing.cv.90min / cm.tc.90min / cm.amp.avg.24hrs / cm.amp.cv.24hrs / cm.bpm.24hrs / cm.cam.24hrs / cm.decay.rise.24hrs / cm.mii.24hrs / cm.mito.24hrs / cm.spacing.cv.24hrs / cm.tc.24hrs: iPSC cardiomyocytes; for endo.cyto.24hr / endo.mito.24hr / endo.mitoint.24hr / endo.nma.24hr / endo.tc.24hr / endo.mtl.18hr / endo.tlps.18hr / endo.tta.18hr / endo.ttl.18hr: iPSC endothelial cells
Text: Phenotypic responses were quantitatively assessed using concentration–response modeling as detailed elsewhere ([Sirenko et al. 2017]). Briefly, phenotypic readouts were normalized to vehicle controls and fit to a four-parameter logistic model in R studio software (version 3.1.1; R Development Core Team). Following EPA guidance on dose–response modeling, a cutoff of one standard deviation across means of vehicle control (i.e., 0.5% vol/vol DMSO in cell culture media) wells was applied to determine the point-of-departure (POD) values ([U.S. EPA 2012]). In the absence of a concentration–response, the highest tested concentration (i.e., 100μM ) was assigned as “no observable adverse effect level.” The concentration–response assessment R script, as well as templates for vehicle and concentration–response data, are available as a supplement to Sirenko et al. ([2017]). The ability of physicochemical properties to predict differences in PODs were evaluated by multiregression and mixed-effects modeling using R.
POD values were then integrated using ToxPi 2.0 ([Marvel et al. 2018]) software. In ToxPi, each slice is representative of cell type– and time-point–specific phenotypes. The area of each slice is proportional to the relative value (e.g., bioactivity or physicochemical descriptor value) of the chemical within the data set. ToxPi scores were used to rank PCBs and their metabolites according to their overall bioactivity and to determine variability in total observable biological responses and chemical characteristics for each major metabolite class and chlorination status (mono-, hexa-chlorinated). Additional visualizations such as dumbbell and principal components analysis plots were generated in R Studio (version 1.1.456; R version 3.5.1; R Development Core Team) using the ggplot2 package.

[2] = test system: iCell cardiomyocytes (human iPSC-derived cardiomyocytes); experiment: High-content imaging of cytotoxicity and mitochondrial integrity in iPSC-CMs; type: cell-based; conditions: Homo sapiens, Cardiomyocyte, cardiomyocytes (cm)
Procedure, shortened: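 Readouts from high-content images were normalized to vehicle controls containing 0.5% vol/vol DMSO. They were fit to a four-parameter logistic model in R. Points of departure were set using a cutoff of one standard deviation across vehicle control means. Where no concentration–response was seen, the top tested concentration of 100μM was assigned as the no observable adverse effect level.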

[3] = 1.5 h, cam, 90 min, read-out: POD cm.cam.90min
[4] = 1.5 h, mii, 90 min, read-out: POD cm.mii.90min
[5] = 1.5 h, mito, 90 min, read-out: POD cm.mito.90min
[6] = 1.5 h, tc, 90 min, read-out: POD cm.tc.90min
[7] = 24 h, cam, 24 hrs, read-out: POD cm.cam.24hrs
[8] = 24 h, mii, 24 hrs, read-out: POD cm.mii.24hrs
[9] = 24 h, mito, 24 hrs, read-out: POD cm.mito.24hrs
[10] = 24 h, tc, 24 hrs, read-out: POD cm.tc.24hrs

Structure (SMILES): Oc1ccccc1-c1ccc(Cl)cc1 [2'-OH-PCB 3]
- huvec.cyto.24hr [1]: 0.3062
- huvec.mito.24hr [1]: 0.3804
- huvec.mitoint.24hr [1]: 0.2116
- huvec.nma.24hr [1]: 0.5273
- huvec.tc.24hr [1]: 0.3062
- huvec.mtl.18hr [1]: 0
- huvec.tlps.18hr [1]: 0.9781
- huvec.tta.18hr [1]: 0
- huvec.ttl.18hr [1]: 0
- cm.amp.avg.90min [1]: 1
- cm.amp.cv.90min [1]: 1
- cm.bpm.90min [1]: 0.6048
- cm.cam.90min [1]: 0.4595
- cm.decay.rise.90min [1]: 0.9737
- cm.mii.90min [1]: 0.8925
- cm.mito.90min [1]: 0.3599
- cm.spacing.cv.90min [1]: 0.3323
- cm.tc.90min [1]: 0.4365
- cm.amp.avg.24hrs [1]: 0.2407
- cm.amp.cv.24hrs [1]: 0.05985
- cm.bpm.24hrs [1]: 0.1658
- cm.cam.24hrs [1]: 0.1217
- cm.decay.rise.24hrs [1]: 0.6737
- cm.mii.24hrs [1]: 0.7202
- cm.mito.24hrs [1]: 0.2606
- cm.spacing.cv.24hrs [1]: 0.1842
- cm.tc.24hrs [1]: 0.2359
- endo.cyto.24hr [1]: 0.1423
- endo.mito.24hr [1]: 0.1423
- endo.mitoint.24hr [1]: 0
- endo.nma.24hr [1]: 0.7069
- endo.tc.24hr [1]: 0.06754
- endo.mtl.18hr [1]: 0.2097
- endo.tlps.18hr [1]: 0.3809
- endo.tta.18hr [1]: 0.1099
- endo.ttl.18hr [1]: 0.1352
- minimal effective concentration [2, 3]: 32.8 µM
- minimal effective concentration [2, 4]: 9.15 µM
- minimal effective concentration [2, 5]: 41.4 µM
- minimal effective concentration [2, 6]: 34.5 µM
- minimal effective concentration [2, 7]: 40.4 µM
- minimal effective concentration [2, 8]: 6.56 µM
- minimal effective concentration [2, 9]: 29.8 µM
- minimal effective concentration [2, 10]: 35.9 µM

Structure (SMILES): O=S(=O)(O)Oc1ccc(-c2cccc(Cl)c2)cc1Cl [4-PCB 11 sulfate]
- huvec.cyto.24hr [1]: 0.07428
- huvec.mito.24hr [1]: 0.09457
- huvec.mitoint.24hr [1]: 0.4402
- huvec.nma.24hr [1]: 0.4481
- huvec.tc.24hr [1]: 0.07428
- huvec.mtl.18hr [1]: 0.4352
- huvec.tlps.18hr [1]: 0.2468
- huvec.tta.18hr [1]: 0
- huvec.ttl.18hr [1]: 0
- cm.amp.avg.90min [1]: 0.5438
- cm.amp.cv.90min [1]: 0.207
- cm.bpm.90min [1]: 0.3056
- cm.cam.90min [1]: 0
- cm.decay.rise.90min [1]: 0.417
- cm.mii.90min [1]: 0
- cm.mito.90min [1]: 0
- cm.spacing.cv.90min [1]: 0.1011
- cm.tc.90min [1]: 0
- cm.amp.avg.24hrs [1]: 0.2154
- cm.amp.cv.24hrs [1]: 0.3772
- cm.bpm.24hrs [1]: 0.2853
- cm.cam.24hrs [1]: 0.3798
- cm.decay.rise.24hrs [1]: 0.3284
- cm.mii.24hrs [1]: 0.1874
- cm.mito.24hrs [1]: 0.571
- cm.spacing.cv.24hrs [1]: 0.2596
- cm.tc.24hrs [1]: 0.6332
- endo.cyto.24hr [1]: 0
- endo.mito.24hr [1]: 0
- endo.mitoint.24hr [1]: 0
- endo.nma.24hr [1]: 0
- endo.tc.24hr [1]: 0
- endo.mtl.18hr [1]: 0.1436
- endo.tlps.18hr [1]: 0.3311
- endo.tta.18hr [1]: 0.1419
- endo.ttl.18hr [1]: 0.1256
- minimal effective concentration [2, 3]: 100 µM
- minimal effective concentration [2, 4]: 100 µM
- minimal effective concentration [2, 5]: 100 µM
- minimal effective concentration [2, 6]: 100 µM
- minimal effective concentration [2, 7]: 5.91 µM
- minimal effective concentration [2, 8]: 49.2 µM
- minimal effective concentration [2, 9]: 7.07 µM
- minimal effective concentration [2, 10]: 6.38 µM

Structure (SMILES): Clc1cccc(-c2cccc(Cl)c2)c1 [PCB 11, 3,3′-Dichlorobiphenyl]
- huvec.cyto.24hr [1]: 0.2265
- huvec.mito.24hr [1]: 0.2773
- huvec.mitoint.24hr [1]: 0.5099
- huvec.nma.24hr [1]: 0.3029
- huvec.tc.24hr [1]: 0.2265
- huvec.mtl.18hr [1]: 0
- huvec.tlps.18hr [1]: 0.1652
- huvec.tta.18hr [1]: 0
- huvec.ttl.18hr [1]: 0
- cm.amp.avg.90min [1]: 0.6423
- cm.amp.cv.90min [1]: 0.3673
- cm.bpm.90min [1]: 0.1538
- cm.cam.90min [1]: 0.6939
- cm.decay.rise.90min [1]: 0.6828
- cm.mii.90min [1]: 0.779
- cm.mito.90min [1]: 0.7948
- cm.spacing.cv.90min [1]: 0.06972
- cm.tc.90min [1]: 0.7336
- cm.amp.avg.24hrs [1]: 0.07152
- cm.amp.cv.24hrs [1]: 0.5878
- cm.bpm.24hrs [1]: 0.1537
- cm.cam.24hrs [1]: 0.1401
- cm.decay.rise.24hrs [1]: 0.254
- cm.mii.24hrs [1]: 0.6195
- cm.mito.24hrs [1]: 0.2384
- cm.spacing.cv.24hrs [1]: 0.3725
- cm.tc.24hrs [1]: 0.241
- endo.cyto.24hr [1]: 0
- endo.mito.24hr [1]: 0
- endo.mitoint.24hr [1]: 0
- endo.nma.24hr [1]: 0
- endo.tc.24hr [1]: 0
- endo.mtl.18hr [1]: 0
- endo.tlps.18hr [1]: 0
- endo.tta.18hr [1]: 0
- endo.ttl.18hr [1]: 0
- minimal effective concentration [2, 3]: 18.6 µM
- minimal effective concentration [2, 4]: 12.4 µM
- minimal effective concentration [2, 5]: 14.2 µM
- minimal effective concentration [2, 6]: 16.7 µM
- minimal effective concentration [2, 7]: 35.2 µM
- minimal effective concentration [2, 8]: 9.6 µM
- minimal effective concentration [2, 9]: 33.1 µM
- minimal effective concentration [2, 10]: 35.1 µM
